The record followed here is paper PMC6013775, “Inhibition of the key enzyme of sialic acid biosynthesis by C6-Se modified N-acetylmannosamine analogs” (Chemical Science, 2016).

Experiment [1] addresses T1, human GlcNAc kinase (GNK) (Homo sapiens, UniProt Q9UJ70).
T1 construct: GST; made in house; host or cells: Escherichia coli BL21-CodonPlus(DE3)-RIL
In words: GNK inhibition, coupled optical assay. Format: biochemical. The source says:
(§1) With the potent diselenide compound 14b in hand, we further studied the binding properties of this potent MNK inhibitor, which is to our knowledge the strongest MNK inhibitor reported to date. Diselenide 14b inhibited MNK activity in a dose dependent manner (Fig. 2A). […] Additionally, we tested if diselenide 14b influenced the GNE activity of the bifunctional GNE/MNK. […] To evaluate the specificity of the inhibitor towards other sugar kinases, we performed further inhibition studies using human GlcNAc kinase (GNK) and hexokinase (HK) from yeast (details in ESI ^†).
N-Acetylmannosamine kinase and N-acetylglucosamine kinase expression and […]
Human N-acetylmannosamine kinase (MNK) was expressed and purified using an established method.1 Therefore, his-tagged MNK was expressed in BL21-CodonPlus (DE3)-RIL Escherichia coli (Stragene). Purification was performed by Ni-NTA affinity chromatography, and subsequently size exclusion chromatography on a SuperdexTM HighLoad 16/600 column (GE Healthcare). […]
Evaluation MNK activity in presence of the compounds 11, 12, 14b, 16b and 18b The effects of compounds 11, 12, 14b, 16b, or 18b on MNK enzyme activity were evaluated using a coupled optical assay. […]

The target in experiment [2] is hexokinase (HK) from yeast. In words: Hexokinase inhibition, coupled optical assay. Format: biochemical. As to conditions: glucose substrate.
Description: as §1
Enzyme activity and inhibition studies using N-acetylmannosamine kinase, N-acetylglucosamine kinase and yeast hexokinase
Evaluation MNK activity in presence of the compounds 11, 12, 14b, 16b and 18b The effects of compounds 11, 12, 14b, 16b, or 18b on MNK enzyme activity were evaluated using a coupled optical assay. 55 µl reaction mixture contained the following buffers and reagents: 39.5 µl buffer A (65 mM MgCl2, 200 mM Tris-HCl, pH 8.1), 5 µl ATP (50 mM), 3.5 µl NADH (30 mM), 2 µl phosphoenolpyruvate (100 mM), 2 U pyruvate-kinase, 2 U lactate-dehydrogenase, 5 µl ManNAc of varying concentrations. Subsequently, 10 µl of the compounds 11, 12, 14b, 16b and 18b were added in varying concentrations. The reaction was initiated by adding 0.6 µg MNK in 35 µL buffer B (10 mM Tris-HCl, 150 mM NaCl, pH 8.0). […]

Molecules are shown by their SMILES. “And” between values parts separate entries of the source, which are not always exact repeats. Identical values can stand only once.

T1 sequence (Q9UJ70 whole entry): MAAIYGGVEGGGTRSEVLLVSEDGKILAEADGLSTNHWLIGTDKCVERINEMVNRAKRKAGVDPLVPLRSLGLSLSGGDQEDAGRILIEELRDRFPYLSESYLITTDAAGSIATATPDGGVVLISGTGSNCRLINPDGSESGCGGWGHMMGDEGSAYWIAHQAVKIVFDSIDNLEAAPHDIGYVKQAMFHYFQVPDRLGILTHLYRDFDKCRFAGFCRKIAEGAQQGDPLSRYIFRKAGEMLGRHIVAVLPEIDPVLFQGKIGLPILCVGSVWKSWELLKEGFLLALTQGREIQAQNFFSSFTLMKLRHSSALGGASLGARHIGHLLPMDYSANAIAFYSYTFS

For the compound `CC(=O)N[C@@H]1C(O)O[C@H](C[Se][Se]C[C@H]2OC(O)[C@@H](NC(C)=O)[C@@H](O)[C@@H]2O)[C@@H](O)[C@@H]1O` (some centres unmarked) [Compound 14b], the IC50 was ~1700 µM and 1700 µM in experiment [1]; above 5000 µM in experiment [2].
